Where “and” joins values, the source holds several entries; their conditions need not be identical. Equal values may be shown once. Calls of active or inactive are those of the source. No cut-off for these calls is given here.
Experiments:
[1] = Compound was tested for relative activity against the cold-induced disassembly of microtubules with respect to rhazinilam (IC50=2*10e-6M); Experiment 1; type: functional
[2] = Inhibitory concentration of compound was determined against KB cells; type: functional, cell-based, Homo sapiens
[3] = Compound was tested for relative activity against the cold-induced disassembly of microtubules with respect to rhazinilam (IC50=2*10e-6M); Experimemt 2; type: functional
[4] = Relative activity against the cold-induced disassembly of microtubules with respect to rhazinilam (IC50=2*10e-6M).; type: functional
[5] = Compound was tested for relative activity against the cold-induced disassembly of microtubules; type: functional
[6] = Compound was tested for relative activity against the cold-induced disassembly of microtubules; IA means Inactive; type: functional
[7] = Inhibitory concentration of compound was determined against disassembly of microtubules; type: functional
[8] = Compound was tested for relative activity against the cold-induced disassembly of microtubules with respect to rhazinilam (IC50=2*10e-6M); IA means Inactive; type: functional
[9] = Inhibitory concentration of compound was determined against KB cells; IA means Inactive; type: functional, cell-based, Homo sapiens

Row | IC50 [2] [µM] | Structure (SMILES) | Ratio [4] | also measured
1 | 75 | CC[C@]12CCCn3c(C(=O)O)cc(c31)-c1ccccc1NC(=O)CC2 |  | Ratio [1]: 5; Ratio [3]: 2 and 3
2 | 15 | CC[C@]12CCCn3c(C(=O)C(F)(F)F)cc(c31)-c1ccccc1NC(=O)CC2 | 4 | 
3 | 3 | CC[C@@]12CCC(=O)Nc3ccccc3-c3ccn(c31)C(=O)CC2 [RHAZINICINE] | 10 | 
4 | 3 | CC[C@@]12CCC(=O)Nc3ccccc3-c3ccn(c31)C(O)CC2 (stereo not given in full) | 15 | 
5 | 10 | CC[C@@]12CCCN(C(=O)OC(C)(C)C)c3ccccc3-c3ccn(c31)CCC2 | 80 | 
6 | 0.5 | CC[C@]12CCCn3ccc(c31)-c1ccccc1NC(=O)CC2 [RHAZINILAM] |  | Ratio [5]: 1; Ratio [6]: inactive; IC50 [7]: 2 µM
7 |  | CC[C@@]12CCCN3C(=O)C=C(c4ccccc4NC(=O)CC1)[C@]32O |  | Ratio [8]: inactive
8 |  | CC[C@@]12CCCN3CC=C(c4ccccc4NC(=O)CC1)C32 (stereo not given in full) |  | Ratio [8]: inactive
9 |  | CC[C@@]12CCCN3CC[C@@]4(C(=Nc5ccccc54)CC1)[C@H]32 |  | Ratio [8]: inactive
10 |  | CC[C@]1(CCC(=O)O)CCCn2ccc(-c3ccccc3N)c21 |  | Ratio [8]: inactive
11 | 10 | CC[C@]12CCCn3ccc(c31)-c1ccccc1/N=C(/S)CC2 | 50 | 
12 |  | CC[C@]12CCCn3ccc(c31)-c1cc(NC(C)=O)ccc1NC(=O)CC2 |  | Ratio [8]: inactive; IC50 [9]: Not Active
13 | 60 | CC[C@]12CCCn3ccc(c31)-c1ccccc1N(C)C(=O)CC2 | 4 | 
14 | 1 | CC[C@@]12CCCNc3ccccc3-c3ccn(c31)CCC2 | 20 | 
15 | 25 | CC[C@]12CCCn3c(C(=O)C(Cl)(Cl)Cl)cc(c31)-c1ccccc1NC(=O)CC2 | 8 | 
16 |  | CC[C@]12CCCn3ccc(c31)-c1ccccc1N(CC(=O)OCc1ccccc1)C(=O)CC2 | 80 | IC50 [9]: Not Active
17 | 20 | CC[C@]12CCCn3c(C(=O)OCc4ccc(OC)c(OC)c4OC)cc(c31)-c1ccccc1NC(=O)CC2 | 7 | 
18 | 4 | CC[C@]12CCCn3c(C(=O)OC)cc(c31)-c1ccccc1NC(=O)CC2 | 5 | 
19 |  | CC[C@]12CCCn3c(C=O)cc(c31)-c1ccccc1NC(=O)CC2 | 6 | 
20 |  | CC[C@]12CCCn3c(C=O)c(C=O)c(c31)-c1ccccc1NC(=O)CC2 |  | Ratio [8]: inactive
21 |  | CC[C@]12CCCn3ccc(c31)-c1ccccc1N(CC(=O)O)C(=O)CC2 | 80 | IC50 [9]: Not Active
22 |  | CC[C@]12CCCn3ccc(c31)-c1cc(Br)ccc1NC(=O)CC2 | 100 | IC50 [9]: Not Active
23 |  | CC[C@]12CCCn3ccc(c31)-c1ccccc1N(C(=O)OC(C)(C)C)C(=O)CC2 | 80 | IC50 [9]: Not Active
24 |  | CC[C@@]12CCCN(C(C)=O)c3ccccc3-c3ccn(c31)CCC2 | 80 | IC50 [9]: Not Active

Source: ChEMBL document CHEMBL1130304, “Hemisynthesis of rhazinilam analogues: structure - activity relationships on tubulin-microtubule system” (Bioorg Med Chem Lett, 1997)
